Data as given in US3988308A, “(Tyr^3, Tyr^14)-SRIF and intermediates” (American Home Products Corporation, priority 1974, dated 1976).
No end group written: not given here.

Assays:
growth hormone (GH) = details: background; Brazeau et al., Science 179 (1973); U.S. Pat. No. 3,842,066; cited from earlier work
[1] = test system: growth hormone release in rat pituitary cell culture; experiment: growth hormone inhibiting activity by radioimmunoassay in a rat pituitary cell culture system; assay type: cell-based; details: tested at 10 ng/ml, 100 ng/ml and 1000ng/ml
Method: (§1) The growth hormone inhibiting activity of the compound of Example 3 was determined by radioimmunoassay in a rat pituitary cell culture system as described by Vale et al, Endocrinology 91, pp 562 (1972) and Grant et al, Biochemical and Biophysical Research Communications 51, pp 100-106 (1973). The compound of Example 3 was tested at 10 ng/ml, 100 ng/ml and 1000ng/ml and was active at these concentrations in inhibiting growth hormone release. The in vivo activity of the compound of Example 3 was determined by dissolving 500 μg of this compound in a mixture of polyethylene glycol (PEG 400) and water (1 ml) and the mixture was injected in rats weighing 200-240 g. Control rats were injected with 80% PEG 400. One hour and forty minutes later the rats were injected i.p. with nembutal at 50 mg/kg. Twenty minutes after the nembutal injection the rats were killed and their blood plasmas were assayed for growth hormone by radioimmunoassay.

growth hormone = experiment: in vivo activity: plasma growth hormone by radioimmunoassay in nembutal-treated rats; details: 500 μg in PEG 400/water (1 ml) injected; rats 200-240 g; nembutal 50 mg/kg i.p. at 1 h 40 min; killed 20 min later; 19 treated rats; control average 117.9 ± 13.6
Method: as §1
The average of 19 treated rats was 80.1 ± 9.0 × 10^-^9 g GH/ml and the average of 11 control rats was 117.9 ± 13.6 × 10^^-9 g GH/ml.

| Compound | inhibition of secretion/release of growth hormone (somatotropin) (growth hormone (GH)) | inhibiting growth hormone release [1] | blood plasma growth hormone, average of treated rats (growth hormone) |
| --- | --- | --- | --- |
| (Ala^3,Ala^14)-SRIF: somatostatin analog described in U.S. Pat. No. 3,842,066 (AGAKNFFWKTFTSA; Somatostatin-14; UniProt P61278 103-116, looked up, variant C3A C14A) | inhibiting the release of growth hormone |  |  |
| H-Ala-Gly-Cys-Lys-Asn-Phe-Phe-Trp-Lys-Thr-Phe-Thr-Ser-Cys-OH (H-AGCKNFFWKTFTSC-OH; ends and bridges not checked) [linear form of somatostatin, synthesized by solid phase methodology] | same biological activity as the somatostatin obtained from a natural source |  |  |
| AGYKNFFWKTFTSY [Example 3, L-alanylglycyl-L-tyrosyl-L-lysyl-L-asparaginyl-L-phenylalanyl-L-phenylalanyl-L-tryptophyl-L-lysyl-L-threonyl-L-phenylalanyl-L-threonyl-L-seryl-L-tyrosine] |  | active | 80.1 ± 9.0 × 10^-9 g GH/ml |
| C[C@H](N)C(=O)NCC(=O)N[C@H]1CSSC[C@@H](C(=O)O)NC(=O)[C@H](CO)NC(=O)[C@H]([C@@H](C)O)NC(=O)[C@H](Cc2ccccc2)NC(=O)[C@H]([C@@H](C)O)NC(=O)[C@H](CCCCN)NC(=O)[C@H](Cc2c[nH]c3ccccc23)NC(=O)[C@H](Cc2ccccc2)NC(=O)[C@H](Cc2ccccc2)NC(=O)[C@H](CC(N)=O)NC(=O)[C@H](CCCCN)NC1=O [Somatostatin] | inhibit the secretion of the hormone somatotropin |  |  |
